From patent US10766928B2, “Targeted conformationally-constrained kinked endosomal disrupting peptides” (priority 2012, dated 2020)
In brackets after ≈: the same amount, converted by molar mass. Where two headings read alike, the source gives them in different places. Non-standard residues stand in square brackets, D forms with d. Residues, ends and D or L forms follow the SMILES beside them. *: point of attachment. Pentanoyl(5-NH-cholesteryl) = CC(C)CCC[C@@H](C)[C@H]1CC[C@H]2[C@@H]3CC=C4C[C@@H](NCCCCC(=O)*)CC[C@]4(C)[C@H]3CC[C@]12C; Cholesteryloxycarbonyl = CC(C)CCC[C@@H](C)[C@H]1CC[C@H]2[C@@H]3CC=C4C[C@@H](OC(=O)*)CC[C@]4(C)[C@H]3CC[C@]12C; PEG3 = NCCOCCOCCOCCC(=O)O; Pra = C#CC[C@H](N)C(=O)O; Aib = CC(C)(N)C(=O)O; Ahx = NCCCCCC(=O)O; βAla = NCCC(=O)O

Key:
[1] = system: endosomes of Jurkat lymphocytes; assay: Endosome disruption in Jurkat lymphocytes: release of carboxyfluorescein from disulfide probe Compound 2, flow cytometry; settings: for Efficacy (% of max. 1): % change in cellular fluorescence relative to maximal response of Compound 1 (100%); for Efficacy (% of 1): % of the effect of compound 1, calculated span of dose-response curve, ± standard deviation
Outline: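 Human Jurkat cells treated with compounds plus disulfide probe Compound 2 (2.5 μM) for 14 h at 37 °C. Cytoplasmic release of pH-sensitive fluorophore Compound 3 quantified by flow cytometry. IC50 by non-linear regression; efficacy as % fluorescence change relative to Compound 1 maximum (100%).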

[2] = Thermodynamic solubility in PBS (pH 7.4); type: physicochemical; settings: for Solubility (aq., μM): Table 1; for solubility thermodynamic at 24 h: phosphate buffered saline
Description: Values in parentheses represent 95% confidence intervals. N.D., not determined.
Measurements represent duplicate or more replicates, with active peptides subjected to multiple replicates. ND: not determined. The peptide was non-toxic and soluble in cell culture medium at this concentration.

[3] = PBS pH 7.4, 24 hours at 22° C., ±S.D.
[4] = pH 7.4, Table 1, PBS pH 7.4, 24 hours at 22° C., ±S.D., read-out: Solubility (aq.)
[5] = read-out: Potency (EC50), Table 1, Jurkat lymphocytes, probe Compound 2 (2.5 μM), 14 hours, 95% confidence interval in neighbouring cell
[6] = read-out: Potency, Table 2, EC50 ± standard deviation, Jurkat lymphocytes, disulfide-linked fluorescent probe (2.5 μM), 14 h
[7] = read-out: Toxicity, Table 3, IC50, Jurkat, 48 h at 37° C., footnote a: non-toxic and soluble in cell culture medium at this concentration
[8] = pH 7.4, Table 3, PBS pH 7.4, 24 h at 22° C., read-out: Solubility

Row | SMILES | EC50 ([1]; 14 h) [µM] | IC50 (Jurkat lymphocytes; 48 h) [µM] | solubility thermodynamic at 24 h [2, 4] [µM] | Efficacy (% of max. 1) ([1]; Table 1, Jurkat, 14 hours) [%] | Efficacy (% of 1) ([1]; Table 2, Jurkat, 14 h) [%] | EC50 [1, 5] [µM] | EC50 [1, 6] [µM] | IC50 (Jurkat lymphocytes; [7]) [µM] | solubility thermodynamic at 24 h [2, 8] [µM] | further results
1 | C#CC[C@H](NC(=O)[C@H](CCC(=O)O)NC(=O)[C@H](CCC(=O)O)NC(=O)CCNC(=O)CCCCN[C@H]1CC[C@@]2(C)C(=CC[C@H]3[C@@H]4CC[C@H]([C@H](C)CCCC(C)C)[C@@]4(C)CC[C@@H]32)C1)C(=O)NCCOCCOCCOCCC(=O)NCCOCCOCCOCCC(=O)NC(C)(C)C(=O)NC(C)(C)C(=O)NC(C)(C)C(=O)NC(C)(C)C(=O)N[C@@H](Cc1ccc(O)cc1)C(=O)N[C@@H](Cc1ccc(O)cc1)C(=O)N[C@@H](C)C(=O)N[C@@H](Cc1ccc(O)cc1)C(=O)N[C@@H](Cc1ccc(O)cc1)C(=O)N1CCC[C@H]1C(=O)N1CCC[C@H]1C(=O)N[C@H](C(=O)N[C@H](C(N)=O)C(C)C)C(C)C [Compound 30, R = BEEZOOUUUUYYAYYPPVV-CONH2] ({Pentanoyl(5-NH-cholesteryl)-βAla}-EE[Pra][PEG3][PEG3][Aib][Aib][Aib][Aib]YYAYYPPVV-NH2) | 0.03 | 2 | < 5 |  |  |  |  |  |  | Solubility (aq., μM) [2, 3]: 3 ± 1 µM (≈ 8.32 µg/mL)
2 | C#CC[C@H](NC(=O)[C@H](CCC(=O)O)NC(=O)[C@H](CCC(=O)O)NC(=O)CCNC(=O)CCNC(=O)O[C@H]1CC[C@@]2(C)C(=CC[C@H]3[C@@H]4CC[C@H]([C@H](C)CCCC(C)C)[C@@]4(C)CC[C@@H]32)C1)C(=O)NCCOCCOCCOCCC(=O)NCCOCCOCCOCCC(=O)NC(C)(C)C(=O)NC(C)(C)C(=O)NC(C)(C)C(=O)NC(C)(C)C(=O)N[C@@H](Cc1ccc(O)cc1)C(=O)N[C@@H](Cc1ccc(O)cc1)C(=O)N[C@@H](C)C(=O)N[C@@H](Cc1ccc(O)cc1)C(=O)N[C@@H](Cc1ccc(O)cc1)C(=O)N1CCC[C@H]1C(=O)N1CCC[C@H]1C(=O)N[C@H](C(=O)N[C@H](C(N)=O)C(C)C)C(C)C [Compound 38, R″ = BEEZOOUUUUYYAYYPPVV-CONH2] ({Cholesteryloxycarbonyl-βAla-βAla}-EE[Pra][PEG3][PEG3][Aib][Aib][Aib][Aib]YYAYYPPVV-NH2) | 0.04 | 8 | 1060 ± 19 (≈ 2950 µg/mL) |  |  |  |  |  |  | IC50 ([1]; 14 h): 0.04 µM; Selectivity for disruption of endosomes over toxicity to cells in culture ([1]; Jurkat, toxicity after 48 hours): greater than hundredfold
3 | CC(C)CCC[C@@H](C)[C@H]1CC[C@H]2[C@@H]3CC=C4C[C@@H](NCCCCC(=O)NCCC(=O)N[C@@H](CCC(=O)O)C(=O)N[C@@H](CCC(=O)O)C(=O)NCCOCCOCCOCCC(=O)NCCOCCOCCOCCC(=O)NC(C)(C)C(=O)NC(C)(C)C(=O)NC(C)(C)C(=O)NC(C)(C)C(=O)N[C@@H](Cc5ccc(O)cc5)C(=O)N[C@@H](Cc5ccc(O)cc5)C(=O)N[C@@H](C)C(=O)N[C@@H](Cc5ccc(O)cc5)C(=O)N[C@@H](Cc5ccc(O)cc5)C(=O)N5CCC[C@H]5C(=O)N5CCC[C@H]5C(=O)N[C@H](C(=O)N[C@H](C(N)=O)C(C)C)C(C)C)CC[C@]4(C)[C@H]3CC[C@]12C [Compound 28, R = BEEOOUUUUYYAYYPPVV-CONH2] ({Pentanoyl(5-NH-cholesteryl)-βAla}-EE[PEG3][PEG3][Aib][Aib][Aib][Aib]YYAYYPPVV-NH2) | 0.06 | 3 | 63 ± 28 (≈ 169 µg/mL) |  |  |  |  |  |  | 
4 | C#CC[C@H](NC(=O)[C@H](CCC(=O)O)NC(=O)[C@H](CCC(=O)O)NC(=O)CCNC(=O)CCCCN[C@H]1CC[C@@]2(C)C(=CC[C@H]3[C@@H]4CC[C@H]([C@H](C)CCCC(C)C)[C@@]4(C)CC[C@@H]32)C1)C(=O)NCCOCCOCCOCCC(=O)NCCOCCOCCOCCC(=O)NC(C)(C)C(=O)NC(C)(C)C(=O)NC(C)(C)C(=O)NC(C)(C)C(=O)N[C@@H](Cc1c[nH]c2ccccc12)C(=O)N[C@@H](Cc1c[nH]c2ccccc12)C(=O)N[C@@H](C)C(=O)N[C@@H](Cc1ccc(O)cc1)C(=O)N[C@@H](Cc1c[nH]c2ccccc12)C(=O)N1CCC[C@H]1C(=O)N1CCC[C@H]1C(=O)N[C@H](C(=O)N[C@@H](C)C(N)=O)C(C)C [Compound 31, R = BEEZOOUUUUWWAYWPPVA-CONH2] ({Pentanoyl(5-NH-cholesteryl)-βAla}-EE[Pra][PEG3][PEG3][Aib][Aib][Aib][Aib]WWAYWPPVA-NH2) | 0.08 | 4 | < 5 |  |  |  |  |  |  | Solubility (aq., μM) [2, 3]: 5 ± 1 µM (≈ 14.1 µg/mL)
5 | CC(C)[C@H](NC(=O)[C@@H](NC(=O)[C@@H]1CCCN1C(=O)[C@@H]1CCCN1C(=O)[C@H](Cc1ccc(O)cc1)NC(=O)[C@H](Cc1c[nH]c2ccccc12)NC(=O)[C@H](C)NC(=O)[C@H](Cc1c[nH]c2ccccc12)NC(=O)[C@H](Cc1c[nH]c2ccccc12)NC(=O)C(C)(C)NC(=O)C(C)(C)NC(=O)C(C)(C)NC(=O)C(C)(C)N)C(C)C)C(N)=O [Compound 54] (H-[Aib][Aib][Aib][Aib]WWAWYPPVV-NH2) |  |  |  | 100 | 101 ± 2 | 3.8 | 5.4 ± 1.6 | > 16 | 8 ± 1 (≈ 12.3 µg/mL) | 
6 | CC(C)[C@H](NC(=O)[C@@H](NC(=O)[C@@H]1CCCN1C(=O)[C@@H]1CCCN1C(=O)[C@H](Cc1c[nH]c2ccccc12)NC(=O)[C@H](Cc1c[nH]c2ccccc12)NC(=O)[C@H](C)NC(=O)[C@H](Cc1ccc(O)cc1)NC(=O)[C@H](Cc1c[nH]c2ccccc12)NC(=O)C(C)(C)NC(=O)C(C)(C)NC(=O)C(C)(C)NC(=O)C(C)(C)N)C(C)C)C(N)=O [Compound 53] (H-[Aib][Aib][Aib][Aib]WYAWWPPVV-NH2) |  |  |  | 104 | 96 ± 12 | 7.1 | 6.7 ± 0.8 | > 16 | 29 ± 3 (≈ 44.7 µg/mL) | 
7 | CC(=O)NC(C)(C)C(=O)NC(C)(C)C(=O)NC(C)(C)C(=O)N[C@@H](Cc1c[nH]c2ccccc12)C(=O)N[C@@H](Cc1c[nH]c2ccccc12)C(=O)N[C@@H](C)C(=O)N[C@@H](Cc1ccc(O)cc1)C(=O)N[C@@H](Cc1c[nH]c2ccccc12)C(=O)N1CCC[C@H]1C(=O)N1CCC[C@H]1C(=O)N[C@H](C(=O)N[C@@H](C)C(N)=O)C(C)C [Compound 41] (Ac-[Aib][Aib][Aib]WWAYWPPVA-NH2) |  |  | 24 ± 3 (≈ 35.3 µg/mL) | 53 |  | 5.9 |  |  |  | Endosome disruption activity (in words) ([1]; Jurkat endosome disruption assay): substantial endosome disruption activity; IC50 (Jurkat lymphocytes; read-out: Toxicity (IC50), Table 1, Jurkat lymphocytes, 48 h at 37° C.): > 100 µM
8 | CC(C)[C@H](NC(=O)[C@@H](NC(=O)[C@@H]1CCCN1C(=O)[C@@H]1CCCN1C(=O)[C@H](Cc1c[nH]c2ccccc12)NC(=O)[C@H](Cc1c[nH]c2ccccc12)NC(=O)[C@H](C)NC(=O)[C@H](Cc1c[nH]c2ccccc12)NC(=O)[C@H](Cc1ccc(O)cc1)NC(=O)C(C)(C)NC(=O)C(C)(C)NC(=O)C(C)(C)NC(=O)C(C)(C)N)C(C)C)C(N)=O [Compound 52] (H-[Aib][Aib][Aib][Aib]YWAWWPPVV-NH2) |  |  |  | 87 | 105 ± 19 | 1.9 | 3.2 ± 1.4 | > 16 | 21 ± 1 (≈ 32.4 µg/mL) | 
9 | CC(C)CCC[C@@H](C)[C@H]1CC[C@H]2[C@@H]3CC=C4C[C@@H](NCCCCC(=O)NCCC(=O)N[C@@H](CCC(=O)O)C(=O)N[C@@H](CCC(=O)O)C(=O)NCCOCCOCCOCCC(=O)NCCOCCOCCOCCC(=O)NC(C)(C)C(=O)NC(C)(C)C(=O)NC(C)(C)C(=O)NC(C)(C)C(=O)N[C@@H](Cc5ccc(O)cc5)C(=O)N[C@@H](Cc5ccc(O)cc5)C(=O)N[C@@H](Cc5ccc(O)cc5)C(=O)N[C@@H](Cc5ccc(O)cc5)C(=O)N[C@@H](Cc5ccc(O)cc5)C(=O)N5CCC[C@H]5C(=O)N5CCC[C@H]5C(=O)N[C@H](C(=O)N[C@H](C(N)=O)C(C)C)C(C)C)CC[C@]4(C)[C@H]3CC[C@]12C [Compound 29, R = BEEOOUUUUYYYYYPPVV-CONH2] ({Pentanoyl(5-NH-cholesteryl)-βAla}-EE[PEG3][PEG3][Aib][Aib][Aib][Aib]YYYYYPPVV-NH2) | 0.08 | 3 | 90 ± 2 (≈ 249 µg/mL) |  |  |  |  |  |  | 
10 | CC(C)CCC[C@@H](C)[C@H]1CC[C@H]2[C@@H]3CC=C4C[C@@H](NCCCCC(=O)NCCC(=O)N[C@@H](CCC(=O)O)C(=O)N[C@@H](CCC(=O)O)C(=O)NCCCCCC(=O)NCCCCCC(=O)NC(C)(C)C(=O)NC(C)(C)C(=O)NC(C)(C)C(=O)NC(C)(C)C(=O)N[C@@H](Cc5ccc(O)cc5)C(=O)N[C@@H](Cc5ccc(O)cc5)C(=O)N[C@@H](C)C(=O)N[C@@H](Cc5ccc(O)cc5)C(=O)N[C@@H](Cc5ccc(O)cc5)C(=O)N5CCC[C@H]5C(=O)N5CCC[C@H]5C(=O)N[C@H](C(=O)N[C@H](C(N)=O)C(C)C)C(C)C)CC[C@]4(C)[C@H]3CC[C@]12C [Compound 25, R = BEEXXUUUUYYAYYPPVV-CONH2] ({Pentanoyl(5-NH-cholesteryl)-βAla}-EE[Ahx][Ahx][Aib][Aib][Aib][Aib]YYAYYPPVV-NH2) | 0.09 | 9 | 22 ± 1 (≈ 54.9 µg/mL) |  |  |  |  |  |  | 
